Results as given in patent US12139492B2 (Endotarget Inc., priority 2021, dated 2024).

Columns and labels:
Assay type in all cases: cell-based
JeKo-1 cells = test: Antiproliferative effect, MTS cell viability assay, JeKo-1 cells; details: Homo sapiens; JeKo-1 mantle cell lymphoma cells; read-out: IC50 (anti-proliferation) JeKO-1 cells
Procedure, shortened: (§1)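 Absorbance at 490 nm of formazan, formed by metabolically active cells from MTS tetrazolium, served as the viability measure after a 72 h treatment across a 0.001–10 μM concentration series plus untreated control.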

BTK = BTK (Homo sapiens, UniProt Q06187); test: BTK degradation, DC50 and Dmax of Table 1 (cell line not given); set-up: endogenous in cells; details: for DC50: concentration giving 50% reduction of BTK expression level
Sequence of BTK (Q06187 whole entry): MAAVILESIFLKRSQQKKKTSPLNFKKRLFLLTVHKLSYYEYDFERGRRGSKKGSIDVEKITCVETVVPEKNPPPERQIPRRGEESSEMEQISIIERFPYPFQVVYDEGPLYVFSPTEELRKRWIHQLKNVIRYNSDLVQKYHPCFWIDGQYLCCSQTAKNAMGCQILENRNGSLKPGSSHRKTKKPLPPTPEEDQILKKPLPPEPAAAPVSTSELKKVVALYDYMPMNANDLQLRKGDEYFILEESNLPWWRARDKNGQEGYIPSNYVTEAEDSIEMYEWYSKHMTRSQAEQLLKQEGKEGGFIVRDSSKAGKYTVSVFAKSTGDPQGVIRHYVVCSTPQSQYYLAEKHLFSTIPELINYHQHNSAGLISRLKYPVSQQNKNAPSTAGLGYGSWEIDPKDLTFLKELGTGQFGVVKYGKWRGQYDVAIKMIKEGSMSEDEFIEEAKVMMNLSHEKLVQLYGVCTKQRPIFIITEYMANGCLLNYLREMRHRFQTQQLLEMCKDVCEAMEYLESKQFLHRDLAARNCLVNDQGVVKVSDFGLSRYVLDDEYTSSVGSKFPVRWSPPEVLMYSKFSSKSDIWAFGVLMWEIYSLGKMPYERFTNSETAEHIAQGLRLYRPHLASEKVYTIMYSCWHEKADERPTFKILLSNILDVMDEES

Mino cells = test: Antiproliferative effect, MTS cell viability assay, Mino cells; details: Homo sapiens, MINO, Mino mantle cell lymphoma cells; read-out: IC50 (anti-proliferation) Mino cells
Procedure, shortened: as §1

| Structure (SMILES) | IC50 (JeKo-1 cells) [nM] | Dmax (BTK) [%] | DC50 (BTK) [nM] | IC50 (Mino cells) [nM] |
| --- | --- | --- | --- | --- |
| Nc1ncnc2c1c(-c1ccc(Oc3ccccc3)cc1)nn2C1CCCN(CCOCCC2CCN(c3ccc4c(c3)C(=O)N(C3CCC(=O)NC3=O)C4=O)CC2)C1 (stereo not shown) [Compound 23, 5-(4-(2-(2-(3-(4-amino-3-(4-phenoxyphenyl)-1H-pyrazolo[3,4-d]pyrimidin-1-yl)piperidin-1-yl)ethoxy)ethyl)piperidin-1-yl)-2-(2,6-dioxopiperidin-3-yl)isoindoline-1,3-dione] | 1000 to 10000 | > 75 | > 50 | 1000 to 10000 |
| Nc1ncnc2c1c(-c1ccc(Oc3ccccc3)cc1)nn2[C@@H]1CCCN(CC2CCN(C(=O)N3CCN(c4ccc5c(c4)CN(C4CCC(=O)NC4=O)C5=O)CC3)CC2)C1 (stereo partly drawn) [Compound 26, 3-(5-(4-(4-(((R)-3-(4-amino-3-(4-phenoxyphenyl)-1H-pyrazolo[3,4-d]pyrimidin-1-yl)piperidin-1-yl)methyl)piperidine-1-carbonyl)piperazin-1-yl)-1-oxoisoindolin-2-yl)piperidine-2,6-dione] | 1000 to 10000 | > 75 | > 50 | 1000 to 10000 |
| Nc1ncnc2c1c(-c1ccc(Oc3ccccc3)cc1)nn2[C@@H]1CCCN(CC2CCN(C(=O)N3CCC(C4CCN(c5ccc6c(c5)CN(C5CCC(=O)NC5=O)C6=O)CC4)CC3)CC2)C1 (stereo partly drawn) [Compound 30, 3-(5-(1′-(4-(((R)-3-(4-amino-3-(4-phenoxyphenyl)-1H-pyrazolo[3,4-d]pyrimidin-1-yl)piperidin-1-yl)methyl)piperidine-1-carbonyl)-[4,4′-bipiperidin]-1-yl)-1-oxoisoindolin-2-yl)piperidine-2,6-dione] | 1000 to 10000 | > 90 | 10 to 50 | 1000 to 10000 |
| Nc1ncnc2c1c(-c1ccc(Oc3ccccc3)cc1)nn2[C@@H]1CCCN(CC2CCN(C(=O)N3CCC(CN4CCN(c5ccc6c(c5)CN(C5CCC(=O)NC5=O)C6=O)CC4)CC3)CC2)C1 (stereo partly drawn) [Compound 32, 3-(5-(4-((1-(4-(((R)-3-(4-amino-3-(4-phenoxyphenyl)-1H-pyrazolo[3,4-d]pyrimidin-1-yl)piperidin-1-yl)methyl)piperidine-1-carbonyl)piperidin-4-yl)methyl)piperazin-1-yl)-1-oxoisoindolin-2-yl)piperidine-2,6-dione] | 1000 to 10000 | > 90 | 10 to 50 | 1000 to 10000 |
| Nc1ncnc2c1c(-c1ccc(Oc3ccccc3)cc1)nn2[C@@H]1CCCN(CC2CCN(C(=O)N3CCC(CCN4CCN(c5ccc6c(c5)CN(C5CCC(=O)NC5=O)C6=O)CC4)CC3)CC2)C1 (stereo partly drawn) [Compound 34, 3-(5-(4-(2-(1-(4-(((R)-3-(4-amino-3-(4-phenoxyphenyl)-1H-pyrazolo[3,4-d]pyrimidin-1-yl)piperidin-1-yl)methyl)piperidine-1-carbonyl)piperidin-4-yl)ethyl)piperazin-1-yl)-1-oxoisoindolin-2-yl)piperidine-2,6-dione] | 1000 to 10000 | > 90 | > 50 | 1000 to 10000 |
| Nc1ncnc2c1c(-c1ccc(Oc3ccccc3)cc1)nn2C1CCN(CC2CCN(C(=O)N3CCC(N4CCN(c5ccc6c(c5)CN(C5CCC(=O)NC5=O)C6=O)CC4)CC3)CC2)CC1 (stereo not shown) [Compound 38, 3-(5-(4-(1-(4-((4-(4-amino-3-(4-phenoxyphenyl)-1H-pyrazolo[3,4-d]pyrimidin-1-yl)piperidin-1-yl)methyl)piperidine-1-carbonyl)piperidin-4-yl)piperazin-1-yl)-1-oxoisoindolin-2-yl)piperidine-2,6-dione] | < 1000 | > 90 | 10 to 50 | < 1000 |
| Nc1ncnc2c1c(-c1ccc(Oc3ccccc3)cc1)nn2C1CCN(CC2CCN(C(=O)N3CCC(C4CCN(c5ccc6c(c5)CN(C5CCC(=O)NC5=O)C6=O)CC4)CC3)CC2)CC1 (stereo not shown) [Compound 40, 3-(5-(1′-(4-((4-(4-amino-3-(4-phenoxyphenyl)-1H-pyrazolo[3,4-d]pyrimidin-1-yl)piperidin-1-yl)methyl)piperidine-1-carbonyl)-[4,4′-bipiperidin]-1-yl)-1-oxoisoindolin-2-yl)piperidine-2,6-dione] | 1000 to 10000 | > 90 | > 50 | 1000 to 10000 |
| Nc1ncnc2c1c(-c1ccc(Oc3ccccc3)cc1)nn2C1CCN(CC2CCN(C(=O)N3CCC(CN4CCN(c5ccc6c(c5)CN(C5CCC(=O)NC5=O)C6=O)CC4)CC3)CC2)CC1 (stereo not shown) [Compound 42, 3-(5-(4-((1-(4-((4-(4-amino-3-(4-phenoxyphenyl)-1H-pyrazolo[3,4-d]pyrimidin-1-yl)piperidin-1-yl)methyl)piperidine-1-carbonyl)piperidin-4-yl)methyl)piperazin-1-yl)-1-oxoisoindolin-2-yl)piperidine-2,6 dione] | < 1000 | > 90 | 10 to 50 | < 1000 |
| Nc1ncnc2c1c(-c1ccc(Oc3ccccc3)cc1)nn2C1CCN(CC2CCN(C(=O)N3CCC(CCN4CCN(c5ccc6c(c5)C(=O)N(C5CCC(=O)NC5=O)C6=O)CC4)CC3)CC2)CC1 (stereo not shown) [Compound 43, 5-(4-(2-(1-(4-((4-(4-amino-3-(4-phenoxyphenyl)-1H-pyrazolo[3,4-d]pyrimidin-1-yl)piperidin-1-yl)methyl)piperidine-1-carbonyl)piperidin-4-yl)ethyl)piperazin-1-yl)-2-(2,6-dioxopiperidin-3-yl)isoindoline-1,3-dione] | 1000 to 10000 | > 90 | – | 1000 to 10000 |
| Nc1ncnc2c1c(-c1ccc(Oc3ccccc3)cc1)nn2C1CCN(CC2CCN(C(=O)N3CCC(CCN4CCN(c5ccc6c(c5)CN(C5CCC(=O)NC5=O)C6=O)CC4)CC3)CC2)CC1 (stereo not shown) [Compound 44, 3-(5-(4-(2-(1-(4-((4-(4-amino-3-(4-phenoxyphenyl)-1H-pyrazolo[3,4-d]pyrimidin-1-yl)piperidin-1-yl)methyl)piperidine-1-carbonyl)piperidin-4-yl)ethyl)piperazin-1-yl)-1-oxoisoindolin-2-yl)piperidine-2,6-dione] | 1000 to 10000 | > 90 | 10 to 50 | 1000 to 10000 |
| Nc1ncnc2c1c(-c1ccc(Oc3ccccc3)cc1)nn2[C@@H]1CCCN(C(=O)N2CCN(c3ccc4c(c3)CN(C3CCC(=O)NC3=O)C4=O)CC2)C1 (stereo partly drawn) [Compound 46, 3-(5-(4-((R)-3-(4-amino-3-(4-phenoxyphenyl)-1H-pyrazolo[3,4-d]pyrimidin-1-yl)piperidine-1-carbonyl)piperazin-1-yl)-1-oxoisoindolin-2-yl)piperidine-2,6-dione] | > 10000 | > 50 | > 50 | > 10000 |
| Nc1ncnc2c1c(-c1ccc(Oc3ccccc3)cc1)nn2[C@@H]1CCCN(C(=O)N2CCC(c3ccc4c(c3)C(=O)N(C3CCC(=O)NC3=O)C4=O)CC2)C1 (stereo partly drawn) [Compound 47, 5-(1-((R)-3-(4-amino-3-(4-phenoxyphenyl)-1H-pyrazolo[3,4-d]pyrimidin-1-yl)piperidine-1-carbonyl)piperidin-4-yl)-2-(2,6-dioxopiperidin-3-yl)isoindoline-1,3-dione] | > 10000 | > 50 | > 50 | > 10000 |
| Nc1ncnc2c1c(-c1ccc(Oc3ccccc3)cc1)nn2[C@@H]1CCCN(C(=O)N2CCC(c3ccc4c(c3)CN(C3CCC(=O)NC3=O)C4=O)CC2)C1 (stereo partly drawn) [Compound 48, 3-(5-(1-((R)-3-(4-amino-3-(4-phenoxyphenyl)-1H-pyrazolo[3,4-d]pyrimidin-1-yl)piperidine-1-carbonyl)piperidin-4-yl)-1-oxoisoindolin-2-yl)piperidine-2,6-dione] | > 10000 | > 50 | > 50 | > 10000 |
| Nc1ncnc2c1c(-c1ccc(Oc3ccccc3)cc1)nn2[C@@H]1CCCN(C(=O)N2CCC(C3CCN(c4ccc5c(c4)CN(C4CCC(=O)NC4=O)C5=O)CC3)CC2)C1 (stereo partly drawn) [Compound 50, 3-(5-(1′-((R)-3-(4-amino-3-(4-phenoxyphenyl)-1H-pyrazolo[3,4-d]pyrimidin-1-yl)piperidine-1-carbonyl)-[4,4′-bipiperidin]-1-yl)-1-oxoisoindolin-2-yl)piperidine-2,6-dione] | 1000 to 10000 | > 90 | 10 to 50 | 1000 to 10000 |
| Nc1ncnc2c1c(-c1ccc(Oc3ccccc3)cc1)nn2[C@@H]1CCCN(C(=O)N2CCC(N3CCC(c4ccc5c(c4)C(=O)N(C4CCC(=O)NC4=O)C5=O)CC3)CC2)C1 (stereo partly drawn) [Compound 53, 5-(1′-((R)-3-(4-amino-3-(4-phenoxyphenyl)-1H-pyrazolo[3,4-d]pyrimidin-1-yl)piperidine-1-carbonyl)-[1,4′-bipiperidin]-4-yl)-2-(2,6-dioxopiperidin-3-yl)isoindoline-1,3-dione] | 1000 to 10000 | > 90 | < 10 | < 1000 |
| Nc1ncnc2c1c(-c1ccc(Oc3ccccc3)cc1)nn2[C@@H]1CCCN(C(=O)N2CCC(N3CCC(c4ccc5c(c4)CN(C4CCC(=O)NC4=O)C5=O)CC3)CC2)C1 (stereo partly drawn) [Compound 54, 3-(5-(1′-((R)-3-(4-amino-3-(4-phenoxyphenyl)-1H-pyrazolo[3,4-d]pyrimidin-1-yl)piperidine-1-carbonyl)-[1,4′-bipiperidin]-4-yl)-1-oxoisoindolin-2-yl)piperidine-2,6-dione] | < 1000 | > 90 | < 10 | < 1000 |
| Nc1ncnc2c1c(-c1ccc(Oc3ccccc3)cc1)nn2[C@@H]1CCCN(C(=O)N2CCC(CN3CCN(c4ccc5c(c4)CN(C4CCC(=O)NC4=O)C5=O)CC3)CC2)C1 (stereo partly drawn) [Compound 56, 3-(5-(4-((1-((R)-3-(4-amino-3-(4-phenoxyphenyl)-1H-pyrazolo[3,4-d]pyrimidin-1-yl)piperidine-1-carbonyl)piperidin-4-yl)methyl)piperazin-1-yl)-1-oxoisoindolin-2-yl)piperidine-2,6-dione] | < 1000 | > 90 | < 10 | < 1000 |
